From ChEMBL document CHEMBL3045094, “A cytotoxic agent from Strychnos nux-vomica and biological evaluation of its modified analogues” (Med Chem Res, 2012)
In brackets after ≈: the same amount, converted by molar mass.

Experiments:
[1] = tested on: Bacopa monnieri; assay: Toxicity against Bacopa monnieri assessed as number of roots at 50 ug/ml after 15 days by Bacopa sensor test (reference value: 2); type: organism-based; settings: in vivo, 360 h
[2] = tested on: COLO 320; assay: Cytotoxic activity against Homo sapiens (human) COLO320 cells by clonogenic assay; type: functional, cell-based
[3] = tested on: Caco-2; assay: Cytotoxic activity against Homo sapiens (human) Caco2 cells by clonogenic assay; type: functional, cell-based
[4] = tested on: Bacopa monnieri; assay: Toxicity against Bacopa monnieri assessed as change in leaf colour at 50 ug/ml after 15 days by Bacopa sensor test; type: organism-based; settings: in vivo, 360 h
[5] = tested on: Bacopa monnieri; assay: Toxicity against Bacopa monnieri assessed as number of shoots at 50 ug/ml after 15 days by Bacopa sensor test (reference value: 2); type: organism-based; settings: in vivo, 360 h
[6] = tested on: PA-1; assay: Cytotoxic activity against Homo sapiens (human) PA1 cells incubated for 4 hr followed by compound wash-out measured after doubling time by MTT assay; type: functional, cell-based
[7] = tested on: Bacopa monnieri; assay: Toxicity against Bacopa monnieri assessed as number of leaves at 50 ug/ml after 15 days by Bacopa sensor test (reference value: 6); type: organism-based; settings: in vivo, 360 h
[8] = tested on: Bacopa monnieri; assay: Toxicity against Bacopa monnieri assessed as shoot elongation at 50 ug/ml after 15 days by Bacopa sensor test (reference value: 0.8 cm); type: organism-based; settings: in vivo, 360 h
[9] = tested on: PA-1; assay: Cytotoxic activity against Homo sapiens (human) PA1 cells by clonogenic assay; type: functional, cell-based
[10] = tested on: Caco-2; assay: Cytotoxic activity against Homo sapiens (human) Caco2 cells incubated for 4 hr followed by compound wash-out measured after doubling time by MTT assay; type: functional, cell-based
[11] = tested on: COLO 320; assay: Cytotoxic activity against Homo sapiens (human) COLO320 cells incubated for 4 hr followed by compound wash-out measured after doubling time by MTT assay; type: functional, cell-based
[12] = tested on: MCF7; assay: Cytotoxic activity against Homo sapiens (human) MCF7 cells incubated for 4 hr followed by compound wash-out measured after doubling time by MTT assay; type: functional, cell-based
[13] = tested on: WRL68; assay: Cytotoxic activity against Homo sapiens (human) WRL68 cells incubated for 4 hr followed by compound wash-out measured after doubling time by MTT assay; type: functional, cell-based
[14] = tested on: WRL68; assay: Cytotoxic activity against Homo sapiens (human) WRL68 cells by clonogenic assay; type: functional, cell-based
[15] = tested on: MCF7; assay: Cytotoxic activity against Homo sapiens (human) MCF7 cells by clonogenic assay; type: functional, cell-based
[16] = tested on: COLO 320; assay: Ratio of vinblastine IC50 to compound IC50 for Homo sapiens (human) COLO320 cells by MTT assay; type: functional
[17] = tested on: WRL68; assay: Ratio of vinblastine IC50 to compound IC50 for Homo sapiens (human) WRL68 cells by MTT assay; type: functional
[18] = tested on: Caco-2; assay: Ratio of vinblastine IC50 to compound IC50 for Homo sapiens (human) Caco2 cells by MTT assay; type: functional
[19] = Homo sapiens, PA-1, 4 h, read-out: IC50
[20] = Homo sapiens, Caco-2, 4 h, read-out: IC50
[21] = Homo sapiens, COLO 320, 4 h, read-out: IC50
[22] = Homo sapiens, MCF7, 4 h, read-out: IC50
[23] = Homo sapiens, WRL68, 4 h, read-out: IC50

Row | SMILES | Activity [1] | IC50 [2] | IC50 [3] | Activity [4] | Activity [5] | IC50 [6, 19] | Activity [7] | Activity [8] | IC50 [9] | IC50 [10, 20] | IC50 [11, 21] | IC50 [12, 22] | IC50 [13, 23] | IC50 [14] | IC50 [15] | IC50 ([10]; caco-2) | other results
1 | CC[C@]1(O)C[C@@H]2CN(CCc3c([nH]c4ccccc34)[C@@](C(=O)OC)(c3cc4c(cc3OC)N(C)[C@H]3[C@@](O)(C(=O)OC)[C@H](OC(C)=O)[C@]5(CC)C=CCN6CC[C@]43[C@@H]65)C2)C1 [VINBLASTINE] | 2 | 1.6 µg/mL (≈ 1.97 µM) | 2.8 µg/mL (≈ 3.45 µM) | Non-toxic | 2 | 0.03 µg/mL (≈ 0.037 µM) | 6 | 0.6 cm | 0.15 µg/mL (≈ 0.185 µM) | 0.46 µg/mL (≈ 0.567 µM) | 0.52 µg/mL (≈ 0.641 µM) | – | – | – | – | – | –
2 | COC(=O)C1=CO[C@@H](O[C@@H]2O[C@H](COC(=O)C=C(C)C)[C@@H](OC(C)=O)[C@H](OC(C)=O)[C@H]2OC(C)=O)[C@@H]2[C@@H](C)[C@@H](OC(C)=O)C[C@H]12 | 2 | 2.84 µg/mL (≈ 4.43 µM) | 6.2 µg/mL (≈ 9.68 µM) | Non-toxic | 2 | 0.65 µg/mL (≈ 1.01 µM) | 6 | 0.4 cm | 1.84 µg/mL (≈ 2.87 µM) | 0.8 µg/mL (≈ 1.25 µM) | 0.08 µg/mL (≈ 0.125 µM) | 1 µg/mL (≈ 1.56 µM) | 1.2 µg/mL (≈ 1.87 µM) | 3.86 µg/mL (≈ 6.03 µM) | 4.65 µg/mL (≈ 7.26 µM) | – | –
3 | COC(=O)C1=CO[C@@H](O[C@@H]2O[C@H](CO)[C@@H](OC(C)=O)[C@H](OC(C)=O)[C@H]2OC(C)=O)[C@@H]2[C@@H](C)[C@@H](OC(C)=O)C[C@H]12 | – | – | – | – | – | – | – | – | – | – | – | – | – | – | – | Not Active | IC50 ([12]; mcf7): Not Active; IC50 ([13]; wrl68): Not Active; IC50 ([6]; pa-1): Not Active; IC50 ([11]; colo 320): Not Active
4 | CCCCCCCCCCCC(=O)OC[C@H]1O[C@@H](O[C@@H]2OC=C(C(=O)OC)[C@H]3C[C@H](OC(C)=O)[C@H](C)[C@@H]23)[C@H](OC(C)=O)[C@@H](OC(C)=O)[C@@H]1OC(C)=O | 3 | 0.24 µg/mL (≈ 0.324 µM) | 1.24 µg/mL (≈ 1.67 µM) | Non-toxic | 2 | 0.15 µg/mL (≈ 0.202 µM) | 6 | 0 cm | 0.42 µg/mL (≈ 0.567 µM) | 0.42 µg/mL (≈ 0.567 µM) | 0.04 µg/mL (≈ 0.054 µM) | 0.24 µg/mL (≈ 0.324 µM) | 0.85 µg/mL (≈ 1.15 µM) | 2.62 µg/mL (≈ 3.54 µM) | 0.75 µg/mL (≈ 1.01 µM) | – | Ratio IC50 [16]: 13; Ratio IC50 [17]: 2
5 | C=CC(=O)OC[C@H]1O[C@@H](O[C@@H]2OC=C(C(=O)OC)[C@H]3C[C@H](OC(C)=O)[C@H](C)[C@@H]23)[C@H](OC(C)=O)[C@@H](OC(C)=O)[C@@H]1OC(C)=O | – | – | – | – | – | – | – | – | – | – | – | – | – | – | – | Not Active | IC50 ([12]; mcf7): Not Active; IC50 ([13]; wrl68): Not Active; IC50 ([6]; pa-1): Not Active; IC50 ([11]; colo 320): Not Active
6 | CCCCCCCCCCCCCC(=O)OC[C@H]1O[C@@H](O[C@@H]2OC=C(C(=O)OC)[C@H]3C[C@H](OC(C)=O)[C@H](C)[C@@H]23)[C@H](OC(C)=O)[C@@H](OC(C)=O)[C@@H]1OC(C)=O | – | – | – | – | – | 6.5 µg/mL (≈ 8.45 µM) | – | – | – | – | 30 µg/mL (≈ 39 µM) | 24.6 µg/mL (≈ 32 µM) | 58.5 µg/mL (≈ 76.1 µM) | – | – | Not Active | –
7 | COC(=O)C1=CO[C@@H](O[C@@H]2O[C@H](COC(c3ccccc3)(c3ccccc3)c3ccccc3)[C@@H](O)[C@H](O)[C@H]2O)[C@@H]2[C@@H](C)[C@@H](O)C[C@H]12 [6'-O-TRITYL LOGANIN] | 2 | 1.4 µg/mL (≈ 2.21 µM) | 2.54 µg/mL (≈ 4.01 µM) | Non-toxic | 2 | 0.65 µg/mL (≈ 1.03 µM) | 6 | 0.4 cm | 2.42 µg/mL (≈ 3.82 µM) | 0.56 µg/mL (≈ 0.885 µM) | 0.25 µg/mL (≈ 0.395 µM) | 1 µg/mL (≈ 1.58 µM) | 1.86 µg/mL (≈ 2.94 µM) | 4.2 µg/mL (≈ 6.64 µM) | 2.8 µg/mL (≈ 4.43 µM) | – | –
8 | COC(=O)C1=CO[C@@H](O[C@@H]2O[C@H](COC(=O)c3cccc([N+](=O)[O-])c3)[C@@H](OC(C)=O)[C@H](OC(C)=O)[C@H]2OC(C)=O)[C@@H]2[C@@H](C)[C@@H](OC(C)=O)C[C@H]12 | 2 | 8.2 µg/mL (≈ 11.6 µM) | 5.42 µg/mL (≈ 7.66 µM) | Non-toxic | 2 | 0.85 µg/mL (≈ 1.2 µM) | 6 | 0.8 cm | 2.65 µg/mL (≈ 3.74 µM) | 1 µg/mL (≈ 1.41 µM) | 0.44 µg/mL (≈ 0.622 µM) | 1.25 µg/mL (≈ 1.77 µM) | 3.2 µg/mL (≈ 4.52 µM) | 6.5 µg/mL (≈ 9.19 µM) | 3.42 µg/mL (≈ 4.83 µM) | – | –
9 | CCC(=O)OC[C@H]1O[C@@H](O[C@@H]2OC=C(C(=O)OC)[C@H]3C[C@H](OC(C)=O)[C@H](C)[C@@H]23)[C@H](OC(C)=O)[C@@H](OC(C)=O)[C@@H]1OC(C)=O | 2 | 4.86 µg/mL (≈ 7.91 µM) | 4.88 µg/mL (≈ 7.94 µM) | Non-toxic | 2 | 1.24 µg/mL (≈ 2.02 µM) | 4 | 0.65 cm | 2.85 µg/mL (≈ 4.64 µM) | 2.85 µg/mL (≈ 4.64 µM) | 0.85 µg/mL (≈ 1.38 µM) | 1.88 µg/mL (≈ 3.06 µM) | 2.65 µg/mL (≈ 4.31 µM) | 8.4 µg/mL (≈ 13.7 µM) | 4.26 µg/mL (≈ 6.93 µM) | – | –
10 | COc1cccc2c1C(=O)c1c(O)c3c(c(O)c1C2=O)C[C@@](O)(C(=O)CO)C[C@@H]3O[C@H]1C[C@H](N)[C@H](O)[C@H](C)O1 [DOXORUBICIN] | 0 | – | – | Toxic | 1 | – | 2 | 0.2 cm | – | – | – | – | – | – | – | – | –
11 | CCCCCCCCCCCCCCCC(=O)OC[C@H]1O[C@@H](O[C@@H]2OC=C(C(=O)OC)[C@H]3C[C@H](OC(C)=O)[C@H](C)[C@@H]23)[C@H](OC(C)=O)[C@@H](OC(C)=O)[C@@H]1OC(C)=O | – | – | – | – | – | – | – | – | – | – | – | – | – | – | – | Not Active | IC50 ([12]; mcf7): Not Active; IC50 ([13]; wrl68): Not Active; IC50 ([6]; pa-1): Not Active; IC50 ([11]; colo 320): Not Active
12 | COC(=O)C1=CO[C@@H](O[C@@H]2O[C@H](CO)[C@@H](O)[C@H](O)[C@H]2O)[C@@H]2[C@@H](C)[C@@H](O)C[C@H]12 [LOGANIN] | 2 | 2.2 µg/mL (≈ 5.64 µM) | 3.45 µg/mL (≈ 8.84 µM) | Non-toxic | 2 | 1.45 µg/mL (≈ 3.71 µM) | 6 | 0.4 cm | 4.85 µg/mL (≈ 12.4 µM) | 1.28 µg/mL (≈ 3.28 µM) | 1 µg/mL (≈ 2.56 µM) | 4.85 µg/mL (≈ 12.4 µM) | 1.86 µg/mL (≈ 4.76 µM) | 3.2 µg/mL (≈ 8.2 µM) | 6.45 µg/mL (≈ 16.5 µM) | – | –
13 | COC(=O)C1=CO[C@@H](O[C@@H]2O[C@H](COC(=O)c3cc(OC)c(OC)c(OC)c3)[C@@H](OC(C)=O)[C@H](OC(C)=O)[C@H]2OC(C)=O)[C@@H]2[C@@H](C)[C@@H](OC(C)=O)C[C@H]12 | 2 | 0.12 µg/mL (≈ 0.159 µM) | 0.46 µg/mL (≈ 0.611 µM) | Non-toxic | 2 | 0.1 µg/mL (≈ 0.133 µM) | 4 | 0.4 cm | 0.45 µg/mL (≈ 0.598 µM) | 0.06 µg/mL (≈ 0.0797 µM) | 0.04 µg/mL (≈ 0.0531 µM) | 0.25 µg/mL (≈ 0.332 µM) | 0.54 µg/mL (≈ 0.717 µM) | 1.2 µg/mL (≈ 1.59 µM) | 0.72 µg/mL (≈ 0.957 µM) | – | Ratio IC50 [16]: 13; Ratio IC50 [18]: 8; Ratio IC50 [17]: 3
